Measurements as given in publication PMC11111408, “Concurrent inhibition of oncogenic and wild-type RAS-GTP for cancer therapy” (Nature, 2024).
Values joined by “and” are separate entries in the source; they are usually repeats but may differ in a detail not shown here. Equal entries are not always repeated.

What was measured:
[1] = system: NCI-H358 cells (CYPA-high, CYPA-low); assay: Proliferation (CTG) of NCI-H358 cells with low or high CYPA; format: cell-based, human
Method: Data points show biological duplicates normalized to vehicle control. […] Data points show biological duplicates normalized to vehicle control from 1 of 2–26 independent experiments. Source Data
Alternatively, cells were seeded in round-bottom ultra-low attachment 96-well plates, centrifuged at 1,000 rpm for 10 min to pellet the cells, and incubated overnight or up to 72 h to allow for 3D spheroid formation. […] Cell viability was determined by CellTiter-Glo 2.0 reagent (2D CTG) (Promega, G9243) or 3D CellTiter-Glo reagent (3D CTG) (Promega, G9683) according to the manufacturer’s protocols. Luminescence was detected using a SpectraMax M5 Plate Reader (Molecular Devices) of Perkin Elmer Enspire. Luminescence signal was normalized to vehicle-treated wells (normalized signal (%) = (luminescence (treated)/mean luminescence (vehicle)) × 100%). […] Data were plotted as log [inhibitor (M)], and a four-parameter sigmoidal concentration response model was fitted to the data to calculate EC50. […] Pa16C MEK1 mutant cells were evaluated by live-cell counting using Calcein AM and a SpectraMax i3X multi-mode detection platform (Molecular Devices). Growth percentages were calculated by normalizing the treated cell counts to their respective untreated cell counts.

KRAS–SOS1 = target: T1, KRAS–SOS1 (Homo sapiens, UniProt P01116+); assay: Cellular nano-BRET, catalytic domain of SOS1 binding to KRAS; format: cell-based; details: in the presence of CYPA, single replicates;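 further: U2OS cells expressing partner proteins fused at the N-terminus to nanoluciferase or HaloTag, nano-BRET signal read after inhibitor exposure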
T1 construct: expressed in transfected cells; host or cells: U2OS

[2] = system: adagrasib-resistant NCI-H358 cells with secondary NRAS^Q61K mutation; assay: Proliferation (CTG) and western blots of parental and adagrasib-resistant NCI-H358 (NRAS^Q61K); format: cell-based, human; details: NCI-H358 clone with concurrent NRAS^Q61K mutation
[3] = system: NCI-H358 and MIA PaCa-2 cells expressing RTK constructs; assay: pERK (MSD) in NCI-H358 and MIA PaCa-2 cells expressing exogenous RTK or RTK fusion constructs; format: cell-based, human; details: for pERK in NCI-H358 RTK overexpression cells treated with RMC-7977 / pERK inhibition in H358 RTK overexpression cells: EGFR WT

## CCn1c(-c2cc(N3CCN(C4CC4)CC3)cnc2[C@H](C)OC)c2c3cc(ccc31)-c1csc(n1)C[C@H](NC(=O)[C@H]1[C@@H]3COC[C@@H]31)C(=O)N1CCC[C@H](N1)C(=O)OCC(C)(C)C2 [RMC-7977]
[1]; NCI-H358, doxycycline-inducible CYPA, 120 h
  sensitivity of CYPA-high versus CYPA-low cells, inhibition of cell proliferation: eightfold
[1]; RMC-7977 0.0152 nM
  Proliferation, H358 CypA high (+ 0.1 µg/ml dox): 114.566 and 114.478 and 102.697 and 95.6358
  Proliferation, H358 CypA high (- dox): 114.881 and 112.875 and 101.544 and 96.9285
  Proliferation, H358 CypA low (+ 0.1 µg/ml dox): 109.975 and 111.873 and 103.465 and 96.8877
  Proliferation, H358 CypA low (- dox): 131.295 and 170.353 and 103.153 and 109.53
[1]; RMC-7977 0.0457 nM
  Proliferation, H358 CypA high (+ 0.1 µg/ml dox): 102.073 and 87.0456
  Proliferation, H358 CypA high (- dox): 94.1146 and 92.3438
  Proliferation, H358 CypA low (+ 0.1 µg/ml dox): 104.393 and 103.775
  Proliferation, H358 CypA low (- dox): 101.295 and 103.944
[1]; RMC-7977 0.41 nM
  Proliferation, H358 CypA high (+ 0.1 µg/ml dox): 40.4066 and 38.4296
  Proliferation, H358 CypA high (- dox): 99.8914 and 99.4838
  Proliferation, H358 CypA low (+ 0.1 µg/ml dox): 94.3293 and 90.7108
  Proliferation, H358 CypA low (- dox): 110.992 and 108.667
[1]; RMC-7977 3.70 nM
  Proliferation, H358 CypA high (+ 0.1 µg/ml dox): 4.175 and 3.964
  Proliferation, H358 CypA high (- dox): 92.1373 and 96.6037
  Proliferation, H358 CypA low (+ 0.1 µg/ml dox): 44.8323 and 42.163
  Proliferation, H358 CypA low (- dox): 108.382 and 108.201
[1]; RMC-7977 11.11 nM
  Proliferation, H358 CypA high (+ 0.1 µg/ml dox): 1.059 and 0.9033
  Proliferation, H358 CypA high (- dox): 92.3418 and 100.036
  Proliferation, H358 CypA low (+ 0.1 µg/ml dox): 22.8241 and 21.8177
  Proliferation, H358 CypA low (- dox): 112.468 and 108.323
[1]; RMC-7977 33.33 nM
  Proliferation, H358 CypA high (+ 0.1 µg/ml dox): 0.7359 and 0.8327
  Proliferation, H358 CypA high (- dox): 92.8182 and 94.1066
  Proliferation, H358 CypA low (+ 0.1 µg/ml dox): 11.066 and 10.8911
  Proliferation, H358 CypA low (- dox): 104.142 and 111.18
[1]; RMC-7977 100.00 nM
  Proliferation, H358 CypA high (+ 0.1 µg/ml dox): 0.6202 and 0.4579
  Proliferation, H358 CypA high (- dox): 94.8777 and 89.8025
  Proliferation, H358 CypA low (+ 0.1 µg/ml dox): 7.141 and 7.102
  Proliferation, H358 CypA low (- dox): 104.79 and 108.679
[1]; RMC-7977 300.00 nM
  Proliferation, H358 CypA high (+ 0.1 µg/ml dox): 0.5256 and 0.2817
  Proliferation, H358 CypA high (- dox): 83.7998 and 85.0113
  Proliferation, H358 CypA low (+ 0.1 µg/ml dox): 5.455 and 5.338
  Proliferation, H358 CypA low (- dox): 79.1522 and 100.975
KRAS–SOS1; RMC-7977 0.152 nM
  Cellular nano-BRET of SOS1 (catalytic domain) binding to KRAS WT: 8.563 and 8.127 and 7.755 and 7.611 and 8.1239 and 8.058
KRAS–SOS1; RMC-7977 0.457 nM
  Cellular nano-BRET of SOS1 (catalytic domain) binding to KRAS WT: 8.149 and 7.736 and 7.651 and 7.24 and 7.671 and 7.508
KRAS–SOS1; RMC-7977 1.372 nM
  Cellular nano-BRET of SOS1 (catalytic domain) binding to KRAS WT: 7.907 and 7.747 and 7.493 and 7.384 and 7.007 and 7.17
KRAS–SOS1; RMC-7977 4.115 nM
  Cellular nano-BRET of SOS1 (catalytic domain) binding to KRAS WT: 6.922 and 7.229 and 6.471 and 6.374 and 6.52 and 6.661
KRAS–SOS1; RMC-7977 12.346 nM
  Cellular nano-BRET of SOS1 (catalytic domain) binding to KRAS WT: 6.508 and 6.709 and 6.01 and 5.988 and 6.2252 and 6.045
KRAS–SOS1; RMC-7977 37.037 nM
  Cellular nano-BRET of SOS1 (catalytic domain) binding to KRAS WT: 7.064 and 6.964 and 6.2728 and 5.9257 and 6.205 and 6.027
KRAS–SOS1; RMC-7977 111.111 nM
  Cellular nano-BRET of SOS1 (catalytic domain) binding to KRAS WT: 6.712 and 6.771 and 6.171 and 6.63 and 5.929 and 6.341
KRAS–SOS1; RMC-7977 333.333 nM
  Cellular nano-BRET of SOS1 (catalytic domain) binding to KRAS WT: 6.383 and 7.187 and 5.742 and 6.572 and 6.198 and 6.656
KRAS–SOS1; RMC-7977 1000.000 nM
  Cellular nano-BRET of SOS1 (catalytic domain) binding to KRAS WT: 6.907 and 6.939 and 5.652 and 5.948 and 6.113 and 6.236
[2]
  RAS signalling and growth of adagrasib-resistant clone: inhibited RAS signalling and growth
[3]; CCDC6-RET, RMC-7977 0.046 nM
  pERK inhibition in MiaPaCa2 RTK fusion overexpression cells treated with RMC-7977: 114.81 and 112.21 and 120.39
[3]; CCDC6-RET, RMC-7977 0.412 nM
  pERK inhibition in MiaPaCa2 RTK fusion overexpression cells treated with RMC-7977: 62.51 and 66.85 and 62.20 and 56.39
[3]; CCDC6-RET, RMC-7977 1.235 nM
  pERK inhibition in MiaPaCa2 RTK fusion overexpression cells treated with RMC-7977: 40.55 and 38.10 and 39.55 and 34.25
[3]; CCDC6-RET, RMC-7977 3.704 nM
  pERK inhibition in MiaPaCa2 RTK fusion overexpression cells treated with RMC-7977: 15.40 and 16.48 and 16.06 and 15.78
[3]; CCDC6-RET, RMC-7977 11.111 nM
  pERK inhibition in MiaPaCa2 RTK fusion overexpression cells treated with RMC-7977: 5.99 and 6.04 and 6.20 and 6.24
[3]; CCDC6-RET, RMC-7977 33.333 nM
  pERK inhibition in MiaPaCa2 RTK fusion overexpression cells treated with RMC-7977: 4.07 and 4.10 and 4.14 and 4.22
[3]; CCDC6-RET, RMC-7977 100.000 nM
  pERK inhibition in MiaPaCa2 RTK fusion overexpression cells treated with RMC-7977: 3.63 and 3.37 and 3.48 and 3.54
[3]; RMC-7977 0.0152 nM
  pERK in NCI-H358 RTK overexpression cells treated with RMC-7977: 104.75 and 140.08
  pERK inhibition in H358 RTK overexpression cells: 88.81 and 100.67
[3]; RMC-7977 0.0457 nM
  pERK in NCI-H358 RTK overexpression cells treated with RMC-7977: 101.07 and 109.46
  pERK inhibition in H358 RTK overexpression cells: 80.53 and 78.65
[3]; RMC-7977 0.41 nM
  pERK in NCI-H358 RTK overexpression cells treated with RMC-7977: 70.68 and 81.35
  pERK inhibition in H358 RTK overexpression cells: 58.96 and 57.93
[3]; RMC-7977 3.70 nM
  pERK inhibition in H358 RTK overexpression cells: 13.20 and 12.44
[3]; RMC-7977 11.11 nM
  pERK inhibition in H358 RTK overexpression cells: 5.97 and 5.02
[3]; RMC-7977 33.33 nM
  pERK in NCI-H358 RTK overexpression cells treated with RMC-7977: 1.98 and 1.90
  pERK inhibition in H358 RTK overexpression cells: 3.17 and 3.29
[3]; RMC-7977 100.00 nM
  pERK in NCI-H358 RTK overexpression cells treated with RMC-7977: 1.18 and 1.21
  pERK inhibition in H358 RTK overexpression cells: 3.04 and 2.54
[3]; RMC-7977 300.00 nM
  pERK in NCI-H358 RTK overexpression cells treated with RMC-7977: 1.43 and 1.37
  pERK inhibition in H358 RTK overexpression cells: 2.79 and 3.22
[3]; EML4-ALK, RMC-7977 0.412 nM
  pERK inhibition in MiaPaCa2 RTK fusion overexpression cells treated with RMC-7977: 51.66 and 62.71 and 69.43
[3]; EML4-ALK, RMC-7977 1.235 nM
  pERK inhibition in MiaPaCa2 RTK fusion overexpression cells treated with RMC-7977: 29.82 and 34.96 and 36.22
[3]; EML4-ALK, RMC-7977 3.704 nM
  pERK inhibition in MiaPaCa2 RTK fusion overexpression cells treated with RMC-7977: 13.53 and 15.19 and 15.47
